This note sets out measurements from patent publication US11753395B2 (Kinnate Biopharma Inc., priority 2021, dated 2023).

A word on the EC50: it is the concentration at which the effect is half-maximal. A low value points to a more potent agent. By IC50 is commonly meant the concentration that inhibits the measured activity by half.

For test [1], the target named is T1, Ba/F3-TPR-MET-D1228N cells (Homo sapiens, UniProt P08581, D1228N, cells depend on it).
T1 construct: fused on or other part: P12270 (Nucleoprotein TPR)
The test can be described thus: CellTiter-Glo Cell Viability Assay, Ba/F3-TPR-MET-D1228N. It counts as cell-based. To be noted: 72 hours. Put shortly: (§1)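 Ba/F3 cells carrying TPR-MET or TPR-MET-D1228N, 3000 per well, were exposed for 72 h at 37 °C to 9-point 3-fold compound dilutions at 0.1% DMSO. Viability was read as ATP by CellTiter-Glo 2.0 luminescence, and IC50 values came from curve fitting.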
(Cellular ATP, detected with luciferase, serves as a proxy for viable cell number.)

The target in test [2] is T2, Ba/F3-TPR-MET cells (Homo sapiens, UniProt P08581).
T2 construct: fused on or other part: P12270 (Nucleoprotein TPR)
Kind of test: CellTiter-Glo Cell Viability Assay, Ba/F3-TPR-MET. It counts as cell-based. The note with it: 72 hours. Put shortly:
as §1

The target of test [3] is T3, MET (Homo sapiens, UniProt P08581).
T3 construct: purchased Carna Biosciences 08-151
The test can be described thus: MET Mobility Shift Assay. To be noted: biochemical assay IC50; 100 μM ATP, 60 minute kinase reaction. Put shortly: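 Recombinant MET at 0.625 nM was pre-incubated 30 min at room temperature with 1.5 μM FLPeptide30 and 10 mM MgCl2 in HEPES buffer with DTT. The reaction was started with 100 μM ATP, ran 60 min, and was stopped with EDTA. Microfluidic mobility-shift % conversion gave IC50.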

For test [4], the target named is T4, MET D1228N (Homo sapiens, UniProt P08581, D1228N).
T4 construct: purchased Signalchem M52-12IG
Kind of test: MET D1228N Mobility Shift Assay. The note with it: biochemical assay IC50; 100 μM ATP, 60 minute kinase reaction. Put shortly:
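Enzyme at 0.313 nM preincubated 30 min at room temperature with 1.5 μM FAM-labelled peptide and 10 mM MgCl2 in HEPES buffer with DTT; reaction started with 100 μM ATP, run 60 min, stopped with EDTA. Substrate/product separated by microfluidic mobility shift; IC50 from inhibition of % conversion.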

In the case of `CNCCOc1cc2nccc(Oc3c(F)cc(NC(=O)c4cnccc4OC(C)C)cc3F)c2cc1OC` [Example 59, N-[3,5-difluoro-4-({6-methoxy-7-[2-(methylamino)ethoxy]quinolin-4-yl}oxy)phenyl]-4-isopropoxypyridine-3-carboxamide], the EC50 in test [1] and in test [2] was at most 100 nM in each case. In addition, the IC50 in test [3] and in test [4] was at most 100 nM each time.

In the case of `CNCCOc1ccc2c(Oc3c(F)cc(NC(=O)c4cnc(F)cc4OC4CC4)cc3F)ccnc2c1` [Example 109, 4-cyclopropoxy-N-(3,5-difluoro-4-((7-(2-(methylamino)ethoxy)quinolin-4-yl)oxy)phenyl)-6-fluoropyridine-3-carboxamide], the concentration for a half-maximal effect (EC50) in test [1] and in test [2] was at most 100 nM each time. Further, the 50% inhibitory concentration (IC50) in test [3] and in test [4] was at most 100 nM in each case.

Turning to `COc1cc2c(Oc3c(F)cc(NC(=O)c4cnccc4OC)cc3F)ccnc2cc1OCCO` [Example 121, N-(3,5-difluoro-4-((7-(2-hydroxyethoxy)-6-methoxyquinolin-4-yl)oxy)phenyl)-4-methoxypyridine-3-carboxamide], the EC50 in test [1] and in test [2] was at most 100 nM each time. The IC50 in test [3] and in test [4] was at most 100 nM in each case.

With `CNCCOc1cc2nccc(Oc3c(F)cc(NC(=O)c4cnccc4OC)cc3F)c2cc1OC` [Example 1, N-(3,5-difluoro-4-((6-methoxy-7-(2-(methylamino)ethoxy)quinolin-4-yl)oxy)phenyl)-4-methoxypyridine-3-carboxamide], the EC50 in test [1] and in test [2] was at most 100 nM each time. Further, the half-inhibitory concentration (IC50) in test [3] and in test [4] was at most 100 nM in each case.

Consider `COc1cc2nccc(Oc3c(F)cc(NC(=O)c4cnccc4OC)cc3F)c2cc1OCCO` [Example 122, N-(3,5-difluoro-4-{[6-(2-hydroxyethoxy)-7-methoxyquinolin-4-yl]oxy}phenyl)-4-methoxypyridine-3-carboxamide], for which the EC50 in test [1] and in test [2] was at most 100 nM in each case. The IC50 in test [3] and in test [4] was at most 100 nM each time.

As to `CCOc1ccnc(F)c1C(=O)Nc1cc(F)c(Oc2ccnc3cc(OCCCNC)c(OC)cc23)c(F)c1` [Example 119], the EC50 in test [1] and in test [2] was 100 to 1000 nM each time. In addition, the IC50 in test [3] and in test [4] was at most 100 nM each time.

For the molecule `CNCCOc1ccc2c(Oc3c(F)cc(NC(=O)c4cnccc4OC4CC4)cc3F)ccnc2c1` [Example 87, 4-cyclopropoxy-N-[3,5-difluoro-4-({7-[2-(methylamino)ethoxy]quinolin-4-yl}oxy)phenyl]pyridine-3-carboxamide], the EC50 in test [1] and in test [2] was at most 100 nM in each case. Moreover, the IC50 in test [3] and in test [4] was at most 100 nM in each case.

For the molecule `CNCCOc1ccc2c(Oc3c(F)cc(NC(=O)c4ncccc4OC4CC4)cc3F)ccnc2c1` [Example 80, 3-cyclopropoxy-N-[3,5-difluoro-4-({7-[2-(methylamino)ethoxy]quinolin-4-yl}oxy)phenyl]pyridine-2-carboxamide], the EC50 in test [1] is at most 100 nM; in test [2], 100 to 1000 nM. Also, the 50% inhibitory concentration (IC50) in test [3] and in test [4] was at most 100 nM each time.

On to `COCCOc1cnc2c(Oc3c(F)cc(NC(=O)c4ccccc4F)cc3F)ccnc2c1` [Example 140, N-(3,5-difluoro-4-((7-(2-methoxyethoxy)-1,5-naphthyridin-4-yl)oxy)phenyl)-2-fluorobenzamide], for which the concentration for a half-maximal effect (EC50) in test [1] and in test [2] was at most 100 nM each time. Moreover, the IC50 in test [3] and in test [4] was at most 100 nM in each case.

Take `COCCOc1cc2nccc(Oc3c(F)cc(NC(=O)c4cnccc4OC)cc3F)c2cc1OCCOC` [Example 43, N-(4-((6,7-bis(2-methoxyethoxy)quinolin-4-yl)oxy)-3,5-difluorophenyl)-4-methoxypyridine-3-carboxamide]: the 50% effective concentration (EC50) in test [1] and in test [2] was at most 100 nM in each case. Also, the IC50 in test [3] and in test [4] was at most 100 nM in each case.

As to `COc1cc2nccc(Oc3c(F)cc(NC(=O)c4cnccc4OC)cc3F)c2cn1` [Example 36, N-{3,5-difluoro-4-[(7-methoxy-1,6-naphthyridin-4-yl)oxy]phenyl}-4-methoxypyridine-3-carboxamide], the EC50 in test [1] and in test [2] was 100 to 1000 nM in each case. In addition, the IC50 in test [3] and in test [4] was at most 100 nM in each case.

As for `COc1cc2nccc(Oc3c(F)cc(NC(=O)c4cnccc4OC)cc3F)c2cc1OC[C@@H](C)O` [Example 124, (R)-N-(3,5-difluoro-4-{[6-(2-hydroxypropoxy)-7-methoxyquinolin-4-yl]oxy}phenyl)-4-methoxypyridine-3-carboxamide], the EC50 in test [1] and in test [2] was at most 100 nM each time. Also, the IC50 in test [3] and in test [4] was at most 100 nM in each case.

For the molecule `COc1cc2c(Oc3c(F)cc(NC(=O)c4cnccc4OCC(F)F)cc3F)ccnc2cc1OCCO` [Example 135, N-(3,5-difluoro-4-((7-(2-hydroxyethoxy)-6-methoxyquinolin-4-yl)oxy)phenyl)-4-(2,2-difluoroethoxy)pyridine-3-carboxamide], the half-maximal effective concentration (EC50) in test [1] and in test [2] was at most 100 nM in each case. In addition, the IC50 in test [3] and in test [4] was at most 100 nM in each case.

Turning to `COCCOc1ccc2c(Oc3c(F)cc(NC(=O)c4cnccc4OC)cc3F)ccnc2c1` [Example 42, N-(3,5-difluoro-4-{[7-(2-methoxyethoxy)quinolin-4-yl]oxy}phenyl)-4-methoxypyridine-3-carboxamide], the values for the EC50 in test [1] and in test [2] were at most 100 nM and 100 to 1000 nM, respectively. For the same molecule, the IC50 in test [3] and in test [4] was at most 100 nM throughout.

As for “(S)-N-(4-((7-(2-aminopropoxy)quinolin-4-yl)oxy)-3,5-difluorophenyl)-4-cyclopropoxypyridine-3-carboxamide [Example 12]”, the EC50 in test [1] and in test [2] was at most 100 nM throughout. The IC50 in test [3] and in test [4] was at most 100 nM throughout.

In the case of `CNCCOc1cc2nccc(Oc3c(F)cc(NC(=O)c4cnccc4O[C@H]4CCOC4)cc3F)c2cc1OC` [Example 71, N-[3,5-difluoro-4-({6-methoxy-7-[2-(methylamino)ethoxy]quinolin-4-yl}oxy)phenyl]-4-[(3S)-oxolan-3-yloxy]pyridine-3-carboxamide], the EC50 in test [1] and in test [2] was 100 to 1000 nM in each case. Also, the half-inhibitory concentration (IC50) in test [3] and in test [4] was at most 100 nM throughout.

For the molecule `CNCCOc1cc2nccc(Oc3ccc(NC(=O)c4cnccc4OC)c(F)c3F)c2cc1OC` [Example 14, N-(2,3-difluoro-4-((6-methoxy-7-(2-(methylamino)ethoxy)quinolin-4-yl)oxy)phenyl)-4-methoxypyridine-3-carboxamide], the EC50 in test [1] and in test [2] was 100 to 1000 nM in each case. In addition, the IC50 in test [3] and in test [4] was at most 100 nM throughout.

On to `COc1cc2c(Oc3c(F)cc(NC(=O)c4cnccc4OC)cc3F)ccnc2cc1OCC(C)(C)O` [Example 39, N-(3,5-difluoro-4-((7-(2-hydroxy-2-methylpropoxy)-6-methoxyquinolin-4-yl)oxy)phenyl)-4-methoxypyridine-3-carboxamide], for which the figures for the EC50 in test [1] and in test [2] were at most 100 nM and 100 to 1000 nM, respectively. The IC50 in test [3] and in test [4] was at most 100 nM each time.

In the case of `COc1cc2c(Oc3c(F)cc(NC(=O)c4cnccc4OC)cc3F)ccnc2cc1OCCCN1CCOCC1` [Example 30, N-(3,5-difluoro-4-((6-methoxy-7-(3-morpholinopropoxy)quinolin-4-yl)oxy)phenyl)-4-methoxypyridine-3-carboxamide], the EC50 in test [1] and in test [2] was at most 100 nM throughout. Moreover, the IC50 in test [3] and in test [4] was at most 100 nM throughout.

For the molecule `CNCCOc1cc2ncnc(Oc3c(F)cc(NC(=O)c4cnccc4OC)cc3F)c2cc1OC` [Example 8, N-(3,5-difluoro-4-((6-methoxy-7-(2-(methylamino)ethoxy)quinazolin-4-yl)oxy)phenyl)-4-methoxypyridine-3-carboxamide], the EC50 in test [1] and in test [2] was 100 to 1000 nM in each case. In addition, the IC50 in test [3] and in test [4] was at most 100 nM each time.

On to `CNCCOc1cc2nccc(Oc3c(F)cc(NC(=O)c4cncnc4OC4CC4)cc3F)c2cc1OC` [Example 76, 4-cyclopropoxy-N-[3,5-difluoro-4-({6-methoxy-7-[2-(methylamino)ethoxy]quinolin-4-yl}oxy)phenyl]pyrimidine-5-carboxamide], for which the concentration for a half-maximal effect (EC50) in test [1] and in test [2] was 100 to 1000 nM each time. Moreover, the IC50 in test [3] and in test [4] was at most 100 nM in each case.

With `COc1cc2c(Oc3c(F)cc(NC(=O)c4cnccc4OC4CC4)cc3F)ccnc2cc1OC[C@@H](C)O` [Example 99, 4-cyclopropoxy-N-[3,5-difluoro-4-({7-[(2R)-2-hydroxypropoxy]-6-methoxyquinolin-4-yl}oxy)phenyl]pyridine-3-carboxamide], the EC50 in test [1] and in test [2] was at most 100 nM in each case. Besides, the IC50 in test [3] and in test [4] was at most 100 nM throughout.
